Measured values taken from PubChem BioAssay (NCI).
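Exposure lasted 48 hours, with cells grown in 96-well plates and compounds tested at five concentrations. Definition used: TGI = concentration required for complete inhibition of growth.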

Experiments:
Assay in all cases: DTP human tumour cell line panel, 48 h
[1] = tested on: 786-0 renal
[2] = tested on: A549 NSCLC
[3] = tested on: ACHN renal
[4] = tested on: BT-549 breast
[5] = tested on: CAKI-1 renal
[6] = tested on: CCRF-CEM leukemia
[7] = tested on: COLO 205 colon
[8] = tested on: DU-145 prostate
[9] = tested on: EKVX NSCLC
[10] = tested on: HCC-2998 colon
[11] = tested on: HCT-116 colon
[12] = tested on: HCT-15 colon
[13] = tested on: HOP-62 NSCLC
[14] = tested on: HS 578T breast
[15] = tested on: HT29 colon
[16] = tested on: IGROV1 ovarian
[17] = tested on: K-562 leukemia
[18] = tested on: KM12 colon
[19] = tested on: M14 melanoma
[20] = tested on: MALME-3M melanoma
[21] = tested on: MCF7 breast
[22] = tested on: MDA-MB-231 breast
[23] = tested on: MDA-MB-435
[24] = tested on: MDA-N
[25] = tested on: MOLT-4 leukemia
[26] = tested on: NCI-H226 lung
[27] = tested on: NCI-H23 lung
[28] = tested on: NCI-H522 lung
[29] = tested on: NCI/ADR-RES ovarian
[30] = tested on: OVCAR-3 ovarian
[31] = tested on: OVCAR-4 ovarian
[32] = tested on: OVCAR-5 ovarian
[33] = tested on: OVCAR-8 ovarian
[34] = tested on: PC-3 prostate
[35] = tested on: RPMI-8226 leukemia
[36] = tested on: RXF 393 renal
[37] = tested on: SF-268 CNS
[38] = tested on: SF-295 CNS
[39] = tested on: SK-MEL-2 melanoma
[40] = tested on: SK-MEL-28 melanoma
[41] = tested on: SK-MEL-5 melanoma
[42] = tested on: SK-OV-3 ovarian
[43] = tested on: SNB-19 CNS
[44] = tested on: SR leukemia
[45] = tested on: SW-620 colon
[46] = tested on: T-47D breast
[47] = tested on: TK-10 renal
[48] = tested on: U251 CNS
[49] = tested on: UACC-257 melanoma
[50] = tested on: UACC-62 melanoma
[51] = tested on: UO-31 renal
[52] = tested on: A498 renal
[53] = tested on: HL-60(TB) leukemia
[54] = tested on: HOP-92 NSCLC
[55] = tested on: LOX IMVI melanoma
[56] = tested on: NCI-H460 lung
[57] = tested on: SF-539 CNS
[58] = tested on: SN12C renal
[59] = tested on: SNB-75 CNS

## CCOC(=O)NCC(=O)NCC(=O)NCC(N)=O
[1]
  TGI: > 100 µM
[2]
  TGI: > 100 µM
[3]
  TGI: > 100 µM
[4]
  TGI: > 100 µM
[5]
  TGI: > 100 µM
[6]
  TGI: > 100 µM
[7]
  TGI: > 100 µM
[8]
  TGI: > 100 µM
[9]
  TGI: > 100 µM
[10]
  TGI: > 100 µM
[11]
  TGI: > 100 µM
[12]
  TGI: > 100 µM
[13]
  TGI: > 100 µM
[14]
  TGI: > 100 µM
[15]
  TGI: > 100 µM
[16]
  TGI: > 100 µM
[17]
  TGI: > 100 µM
[18]
  TGI: > 100 µM
[19]
  TGI: > 100 µM
[20]
  TGI: > 100 µM
[21]
  TGI: > 100 µM
[22]
  TGI: > 100 µM
[23]
  TGI: > 100 µM
[24]
  TGI: > 100 µM
[25]
  TGI: > 100 µM
[26]
  TGI: > 100 µM
[27]
  TGI: > 100 µM
[28]
  TGI: > 100 µM
[29]
  TGI: > 100 µM
[30]
  TGI: > 100 µM
[31]
  TGI: > 100 µM
[32]
  TGI: > 100 µM
[33]
  TGI: > 100 µM
[34]
  TGI: > 100 µM
[35]
  TGI: > 100 µM
[36]
  TGI: > 100 µM
[37]
  TGI: > 100 µM
[38]
  TGI: > 100 µM
[39]
  TGI: > 100 µM
[40]
  TGI: > 100 µM
[41]
  TGI: > 100 µM
[42]
  TGI: > 100 µM
[43]
  TGI: > 100 µM
[44]
  TGI: > 100 µM
[45]
  TGI: > 100 µM
[46]
  TGI: > 100 µM
[47]
  TGI: > 100 µM
[48]
  TGI: > 100 µM
[49]
  TGI: > 100 µM
[50]
  TGI: > 100 µM
[51]
  TGI: > 100 µM

## CSc1ccc2c(c1)N(CCCN(C)C)c1ccccc1S2
[1]
  TGI: 28.5 µM
[52]
  TGI: 24.6 µM
[2]
  TGI: 30.2 µM
[3]
  TGI: 24.1 µM
[4]
  TGI: 29.2 µM
[5]
  TGI: 21.2 µM
[6]
  TGI: 23.4 µM
[7]
  TGI: 31.7 µM
[8]
  TGI: 30.1 µM
[9]
  TGI: 35.1 µM
[11]
  TGI: 26.9 µM
[12]
  TGI: 30.4 µM
[53]
  TGI: 31.3 µM
[13]
  TGI: 28.4 µM
[54]
  TGI: 26.8 µM
[14]
  TGI: 28.7 µM
[15]
  TGI: 21.1 µM
[16]
  TGI: 28 µM
[17]
  TGI: 17 µM
[18]
  TGI: 24.9 µM
[55]
  TGI: 32.4 µM
[19]
  TGI: 17.8 µM
[20]
  TGI: 22 µM
[21]
  TGI: 26.1 µM
[22]
  TGI: 26.3 µM
[23]
  TGI: 17 µM
[24]
  TGI: 23.9 µM
[25]
  TGI: 20 µM
[26]
  TGI: 43.2 µM
[27]
  TGI: 31.5 µM
[56]
  TGI: 26.5 µM
[28]
  TGI: 26.6 µM
[29]
  TGI: 26.2 µM
[30]
  TGI: 27.2 µM
[31]
  TGI: 24.5 µM
[32]
  TGI: 30.9 µM
[33]
  TGI: 36.1 µM
[34]
  TGI: 23.8 µM
[35]
  TGI: 28.5 µM
[36]
  TGI: 22.5 µM
[37]
  TGI: 27.2 µM
[38]
  TGI: 26.8 µM
[57]
  TGI: 44.9 µM
[39]
  TGI: 29.5 µM
[40]
  TGI: 6.7 µM
[41]
  TGI: 25.4 µM
[42]
  TGI: 29.4 µM
[58]
  TGI: 28.5 µM
[43]
  TGI: 30.6 µM
[59]
  TGI: 20.8 µM
[44]
  TGI: 19.2 µM
[45]
  TGI: 41.8 µM
[46]
  TGI: 25.9 µM
[47]
  TGI: 28.3 µM
[48]
  TGI: 27.1 µM
[49]
  TGI: 19.9 µM
[50]
  TGI: 22.4 µM

## C=C1CCC2C(C)(CO)C(O)CCC2(C)C1C/C=C1\C(=O)OCC1O (centres undefined)
[1]
  TGI: 18.1 µM
[52]
  TGI: 93.1 µM
[2]
  TGI: 80.9 µM
[3]
  TGI: > 100 µM
[4]
  TGI: 20.3 µM
[6]
  TGI: > 100 µM
[7]
  TGI: 27.9 µM
[8]
  TGI: > 100 µM
[9]
  TGI: 99.7 µM
[10]
  TGI: 50.6 µM
[11]
  TGI: 28.9 µM
[12]
  TGI: 39.5 µM
[53]
  TGI: > 100 µM
[13]
  TGI: 54.4 µM
[54]
  TGI: 66.1 µM
[14]
  TGI: > 100 µM
[15]
  TGI: 25.8 µM
[16]
  TGI: 57.4 µM
[17]
  TGI: > 100 µM
[18]
  TGI: 27.2 µM
[55]
  TGI: 30.4 µM
[19]
  TGI: 53.7 µM
[20]
  TGI: 30.2 µM
[21]
  TGI: 31.3 µM
[22]
  TGI: 58.9 µM
[23]
  TGI: 22.9 µM
[24]
  TGI: 55.1 µM
[25]
  TGI: > 100 µM
[26]
  TGI: > 100 µM
[27]
  TGI: 49.8 µM
[56]
  TGI: 59.2 µM
[28]
  TGI: 28.4 µM
[29]
  TGI: > 100 µM
[30]
  TGI: 21.2 µM
[31]
  TGI: 23.5 µM
[32]
  TGI: 31.1 µM
[33]
  TGI: 22.6 µM
[34]
  TGI: 71.6 µM
[35]
  TGI: 49.9 µM
[36]
  TGI: 33.8 µM
[37]
  TGI: > 100 µM
[38]
  TGI: 52.5 µM
[57]
  TGI: 44.3 µM
[39]
  TGI: 30.8 µM
[40]
  TGI: 27.3 µM
[41]
  TGI: 27.8 µM
[42]
  TGI: 66.7 µM
[58]
  TGI: 35.8 µM
[43]
  TGI: > 100 µM
[59]
  TGI: 30.5 µM
[44]
  TGI: 42.5 µM
[45]
  TGI: 24 µM
[46]
  TGI: 74.7 µM
[47]
  TGI: > 100 µM
[48]
  TGI: 23.1 µM
[49]
  TGI: 73.8 µM
[50]
  TGI: 57.5 µM
[51]
  TGI: > 100 µM

## Cc1cc(C)nc(NS(=O)(=O)c2ccc(NC(=O)c3ccc4nc5ccccc5c(Nc5ccc(S(=O)(=O)N=C(N)N)cc5)c4c3)cc2)n1
[1]
  TGI: > 100 µM
[2]
  TGI: > 100 µM
[3]
  TGI: > 100 µM
[4]
  TGI: > 100 µM
[5]
  TGI: > 100 µM
[6]
  TGI: > 100 µM
[7]
  TGI: > 100 µM
[8]
  TGI: > 100 µM
[9]
  TGI: > 100 µM
[10]
  TGI: > 100 µM
[11]
  TGI: > 100 µM
[12]
  TGI: > 100 µM
[53]
  TGI: > 100 µM
[13]
  TGI: > 100 µM
[54]
  TGI: > 100 µM
[14]
  TGI: > 100 µM
[15]
  TGI: > 100 µM
[16]
  TGI: > 100 µM
[17]
  TGI: > 100 µM
[18]
  TGI: > 100 µM
[55]
  TGI: > 100 µM
[19]
  TGI: > 100 µM
[20]
  TGI: > 100 µM
[21]
  TGI: > 100 µM
[22]
  TGI: > 100 µM
[23]
  TGI: > 100 µM
[24]
  TGI: > 100 µM
[25]
  TGI: > 100 µM
[26]
  TGI: > 100 µM
[27]
  TGI: > 100 µM
[56]
  TGI: > 100 µM
[28]
  TGI: > 100 µM
[29]
  TGI: > 100 µM
[30]
  TGI: > 100 µM
[31]
  TGI: > 100 µM
[32]
  TGI: > 100 µM
[33]
  TGI: > 100 µM
[34]
  TGI: > 100 µM
[35]
  TGI: > 100 µM
[36]
  TGI: > 100 µM
[37]
  TGI: > 100 µM
[38]
  TGI: > 100 µM
[57]
  TGI: > 100 µM
[39]
  TGI: > 100 µM
[40]
  TGI: > 100 µM
[41]
  TGI: > 100 µM
[42]
  TGI: > 100 µM
[58]
  TGI: > 100 µM
[43]
  TGI: > 100 µM
[59]
  TGI: > 100 µM
[44]
  TGI: > 100 µM
[45]
  TGI: > 100 µM
[46]
  TGI: > 100 µM
[47]
  TGI: > 100 µM
[48]
  TGI: > 100 µM
[49]
  TGI: > 100 µM
[50]
  TGI: > 100 µM
[51]
  TGI: > 100 µM
